From the Deep4Chem optical property database

Assay: solvent given as SMILES

Work on `CCCCN(CCCC)c1ccc(/C=C/c2ccc3nc(/C=C/c4ccc(N(C)C)cc4)c(=O)n(CCC)c3c2)cc1` yielded an emission maximum (in C1COCCO1) of 559 nm, an emission maximum (in CC#N) of 651 nm and an emission maximum (in ClCCl) of 611 nm.

Work on `C[Si]1(C)O[Si](C)(C)c2cc3nc4ccc([N+](=O)[O-])cc4c(-c4ccccc4)c3cc2[Si](C)(C)O1` yielded an emission maximum (in ClCCl) of 520 nm.

With `COc1nc(Nc2ccc3ccc4cccc5ccc2c3c45)nc(OC)n1` the emission maximum (in CC#N) was 390 nm, the emission maximum (in CCCCOCCCC) was 388 nm and the emission maximum (in CO) was 388 nm.

With `CCCCCCCCC1(CCCCCCCC)c2cc(-c3ccc(C(F)(F)F)cc3)ccc2-c2ccc(N(c3ccc(-n4c5ccccc5c5ccccc54)cc3)c3ccc4c(c3)C(CCCCCCCC)(CCCCCCCC)c3cc(-c5ccc(C(F)(F)F)cc5)ccc3-4)cc21` the emission maximum (in C1CCOC1) was 455 nm, the emission maximum (in C1COCCO1) was 434 nm and the emission maximum (in CC#N) was 495 nm. For the same compound, the emission maximum (in CC(C)=O) was 477 nm, the emission maximum (in CCCCCC) was 416 nm and the emission maximum (in CCCCOCCCC) was 425 nm. The emission maximum (in CCN(CC)CC) was 423 nm, the emission maximum (in CCOC(C)=O) was 450 nm and the emission maximum (in CCOCC) was 432 nm. The emission maximum (in CN(C)C=O) was 493 nm, the emission maximum (in CS(C)=O) was 486 nm and the emission maximum (in Cc1ccccc1) was 427 nm. The emission maximum (in ClC(Cl)Cl) was 445 nm, the emission maximum (in ClCCl) was 465 nm and the emission maximum (in c1ccccc1) was 428 nm.

Work on `F[B-]1(F)n2c(c3cccc4cccc2c43)=Nc2cccc(Cl)[n+]21` yielded an emission maximum (in C1CCOC1) of 503 nm, an emission maximum (in CC#N) of 502 nm and an emission maximum (in CCCCCC) of 498 nm. It also gave an emission maximum (in Cc1ccccc1) of 503 nm and an emission maximum (in ClCCl) of 526 nm.

`CCN(CC)c1ccc(OC)c(C=O)c1` gave an emission maximum (in CC#N) of 548 nm, an emission maximum (in CC(C)O) of 600 nm and an emission maximum (in CCCCCC) of 470 nm. The emission maximum (in CCOC(C)=O) was 518 nm, the emission maximum (in CO) was 645 nm and the emission maximum (in CS(C)=O) was 558 nm. The emission maximum (in Cc1ccccc1) was 509 nm and the emission maximum (in ClCCl) was 538 nm.

For `CCOC(=O)c1c(CSc2ccccc2)n(C)c2cc(Br)c(O)c(CN(C)C)c12`, the emission maximum (in O) was 350 nm.

With `CN(C)c1ccc2c(-c3cc(C(=O)[O-])ccc3C(=O)[O-])c3ccc(=[N+](C)C)cc-3oc2c1` the emission maximum (in CCO) was 564 nm and the emission maximum (in O) was 575 nm.

For `C(#Cc1ccc(C#Cc2ccccc2)cc1)c1ccccc1`, the emission maximum (in ClC(Cl)Cl) was 348 nm.

In the case of `CCCN1/C(=C\c2c(-c3ccc(N(C)C)cc3)c(=O)c2=O)C=Cc2ccccc21`, the emission maximum (in C1CCCCC1) is reported as 428 nm, the emission maximum (in Cc1ccccc1) is reported as 435 nm and the emission maximum (in ClCCl) is reported as 585 nm.

For `Cc1ccc(-c2c3nc(c(-c4ccc(C)cc4)c4ccc([nH]4)c(-c4ccc(C)cc4)c4nc(c(-c5ccc(C)cc5)c5ccc2[nH]5)C=C4N2CCOCC2)C=C3)cc1`, the emission maximum (in CS(C)=O) was 666 nm.

`COC(=O)CNC(=O)CCNc1cccc2ccccc12` gave an emission maximum (in CCO) of 417 nm.

Work on `CC(C)(C)NC(=O)c1c([Si](C)(C)C)cc2ccc3cccc4ccc1c2c34` yielded an emission maximum (in ClC(Cl)Cl) of 383 nm.

In the case of `CC(C)(C)c1ccc(-n2c(-c3ccc(-c4ccc(-c5c(-c6ccccc6)nc6ccccn56)cc4)cc3)nc3c4ccccc4c4ccccc4c32)cc1`, the emission maximum (in ClCCl) is reported as 426 nm.

For `CCN(CC)c1ccc2c(c1)oc(=O)c1cc3c(-c4ccccc4)nn(C)c3nc12`, the emission maximum (in ClCCl) was 506 nm.

For `Cc1cc(-c2ccccc2)nc2c1ccc1nc(-c3ccccc3)cn12`, the emission maximum (in CC#N) was 458 nm, the emission maximum (in CCCCOC(C)=O) was 449 nm and the emission maximum (in CCOC(C)=O) was 454 nm. The emission maximum (in CO) was 450 nm, the emission maximum (in ClC(Cl)Cl) was 448 nm and the emission maximum (in ClCCl) was 450 nm. For the same compound, the emission maximum (in c1ccccc1) was 451 nm.

`C[Si]1(c2ccccc2)C(c2ccc3c(c2)c2ccccc2n3-c2ccccc2)=C(c2ccccc2)C(c2ccccc2)=C1c1ccc2c(c1)c1ccccc1n2-c1ccccc1` showed an emission maximum (in C1CCOC1) of 526 nm.

Compound `Cc1cc(C)c(C2=C3C=C(/C=C/C(=O)OCc4ccccc4)C=[N+]3[B-](F)(F)n3cccc32)c(C)c1` has an emission maximum (in ClCCl) of 568 nm.

Compound `Cc1c(COC(=O)c2ccccc2)n2c(OCC(=O)c3ccccc3)c(C)c(=O)n2c1=O` has an emission maximum (in CCO) of 457 nm.

Compound `O=C1Cc2ccc(cc2)CC(=O)Cc2ccc(c3nsnc23)C1` has an emission maximum (in C1CCCCC1) of 468 nm, an emission maximum (in CC#N) of 495 nm and an emission maximum (in ClC(Cl)Cl) of 488 nm.

Work on `C(S/C=C/c1ccc(-c2ccc(/C=C/SC=C(c3ccccc3)c3ccccc3)cc2)cc1)=C(c1ccccc1)c1ccccc1` yielded an emission maximum (in ClCCl) of 441 nm.

For `N#Cc1c(N2CCCCC2)cc(-c2ccc3ccc4cccc5ccc2c3c45)c2c1-c1ccccc1C2=O`, the emission maximum (in C1CCOC1) was 528 nm.

`O=C(O)c1ccccc1-c1nc(-c2ccccc2)c2ccccn12` gave an emission maximum (in CC#N) of 494 nm.

For `N#Cc1c(N2CCCCC2)cc(-c2ccccc2)c2c1Cc1ccccc1-2`, the emission maximum (in C1CCOC1) was 449 nm.

For `CN1/C(=C/C=C/C2=[N+](C)c3ccccc3C2(C)C)Sc2ccccc21`, the emission maximum (in CS(C)=O) was 569 nm.

In the case of `CCN(C)c1ccc(C2=C3C(C)=CC(C)=[N+]3[B-](F)(F)n3c(C)cc(C)c32)cc1`, the emission maximum (in CO) is reported as 513 nm.

For `CC(C)(C)c1ccc(C2=Cc3cc4c(cc3P2(=O)c2ccccc2)C=C(c2ccc(C(C)(C)C)cc2)P4(=O)c2ccccc2)cc1` (stereo not drawn), the emission maximum (in C1CCOC1) was 495 nm.

`CC(C)(C)Nc1c(-c2ccc(-c3cc(=O)cc(-c4ccccc4)o3)cc2)nc2ccccn12` showed an emission maximum (in ClCCl) of 515 nm.

Compound `Oc1ccc2ccccc2c1/C=N/C1CCCCC1/N=C/c1c(O)ccc2ccccc12` (stereo not drawn) has an emission maximum (in CC#N) of 471 nm.

Work on `COc1ccc(/C=C/c2nc3ccccc3s2)cc1` yielded an emission maximum (in C1CCCCC1) of 400 nm and an emission maximum (in CO) of 420 nm.

Compound `O=P1(c2ccccc2)C(c2ccc(C(F)(F)F)cc2)=Cc2ccccc21` (stereo not drawn) has an emission maximum (in C1CCOC1) of 414 nm.

Work on `C(#Cc1nc(C#Cc2ccccc2)c(C#Cc2ccccc2)c(C#Cc2ccccc2)c1C#Cc1ccccc1)c1ccccc1` yielded an emission maximum (in ClCCl) of 438 nm.

`CC[N+](CC)=c1ccc2cc3c(oc-2c1)-c1ccc(N(C)C)cc1CC3` gave an emission maximum (in CCO) of 644 nm, an emission maximum (in ClCCl) of 642 nm and an emission maximum (in O) of 641 nm.

Work on `c1ccc2cc3c4c(ccc3cc2c1)-c1cccc2cccc-4c12` yielded an emission maximum (in CCCCCCC) of 520 nm.

`C#Cc1ccc(-c2c3nc(c(-c4ccc(C#C)cc4)c4ccc([nH]4)c(-c4cc(C(C)(C)C)cc(C(C)(C)C)c4)c4cc(c(-c5cc(C(C)(C)C)cc(C(C)(C)C)c5)c5ccc2[nH]5)C=N4)C=C3)cc1` showed an emission maximum (in ClCCl) of 744 nm.

Compound `FP(F)(c1c2ccccc2cc2ccccc12)(c1c2ccccc2cc2ccccc12)c1c2ccccc2cc2ccccc12` has an emission maximum (in C1CCOC1) of 410 nm.

Work on `CCCCCCN(c1ccccc1)c1ccc(/C=C/c2cc(=O)oc3cc(C)ccc23)cc1` yielded an emission maximum (in CS(C)=O) of 583 nm and an emission maximum (in ClC(Cl)Cl) of 544 nm.

For `N#CC1=CC=CC(C#N)=P1(c1ccccc1)c1ccccc1`, the emission maximum (in ClC(Cl)Cl) was 491 nm.

Compound `CN1/C(=C/C=C(/C=C/C2=[N+](C)c3ccccc3C2(C)C)c2ccc(F)cc2)C(C)(C)c2ccccc21` has an emission maximum (in CCO) of 666 nm, an emission maximum (in CO) of 666 nm and an emission maximum (in CS(C)=O) of 669 nm. The emission maximum (in O) was 662 nm.

With `Fc1nc(F)c(F)c(C#Cc2ccccc2C#Cc2c(F)c(F)nc(F)c2F)c1F` the emission maximum (in CC#N) was 370 nm.

With `COc1ccc(-c2ccc(/C=C/c3ccncn3)cc2)cc1` the emission maximum (in ClCCl) was 447 nm.

`CCCCCCc1ccc2c3c(ccc2c1)O[B-](c1ccccc1)(c1ccccc1)[N+](c1ccc([N+]2=Cc4c(ccc5cc(CCCCCC)ccc45)O[B-]2(c2ccccc2)c2ccccc2)cc1)=C3` showed an emission maximum (in C1CCOC1) of 568 nm, an emission maximum (in CC#N) of 561 nm and an emission maximum (in Cc1ccccc1) of 569 nm. It also gave an emission maximum (in ClCCl) of 568 nm.

`CCCCCCCCCCOc1cc(OCCCCCCCCCC)cc(C2=C3C(/C=C/c4ccc(N(C)C)cc4)=C(C#Cc4ccc(C(C)(C)C)cc4)C(/C=C/c4ccc(N(C)C)cc4)=[N+]3[B-](F)(F)n3c(/C=C/c4ccc(N(C)C)cc4)c(C#Cc4ccc(C(C)(C)C)cc4)c(/C=C/c4ccc(N(C)C)cc4)c32)c1` gave an emission maximum (in ClC(Cl)Cl) of 835 nm.

In the case of `CC1=CC(/C=C/c2ccc(OCCCN=[N+]=[N-])cc2)=[N+]2C1=C(c1ccc(N(C)C)cc1)c1c(C)cc(C)n1[B-]2(F)F`, the emission maximum (in CO) is reported as 586 nm.

`Cc1ccc(C(=O)/N=c2\oc3cccc4c5c(-c6ccccc6)oc6cccc(c(c2-c2ccccc2)c34)c65)cc1` showed an emission maximum (in ClC(Cl)Cl) of 535 nm.

Work on `COc1cc(/C=C/c2ccccn2)c(OC)cc1C=O` yielded an emission maximum (in C1CCOC1) of 446 nm, an emission maximum (in CC#N) of 458 nm and an emission maximum (in CN(C)C=O) of 456 nm. It also gave an emission maximum (in Cc1ccccc1) of 444 nm and an emission maximum (in ClCCl) of 455 nm.

Work on `CCCCCCCCCCCCCCCCCCOc1ccc([B-]23NC(c4ccccc4)=Nc4cccc([n+]42)N=C(c2ccccc2)N3)cc1` yielded an emission maximum (in ClCCl) of 511 nm.

With `CCCCCCCCOc1ccc2c3c(c4ccc(OCCCCCCCC)cc4c2c1)C(C)(C)c1ccccc1-3` the emission maximum (in C1CCCCC1) was 390 nm.

With `CCCCCn1c2cc(/C=C/c3ccc(N(c4ccccc4)c4ccccc4)cc3)ccc2c2ccc(/C=C/c3ccc(N(c4ccccc4)c4ccccc4)cc3)cc21` the emission maximum (in Cc1ccccc1) was 451 nm.

In the case of `COc1ccc(N(c2ccccc2)c2ccc(OC)cc2)cc1`, the emission maximum (in Cc1ccccc1) is reported as 387 nm.

For `c1cc(-c2ccc(-n3c4ccccc4c4ccccc43)cc2)c2nsnc2c1`, the emission maximum (in ClCCl) was 537 nm.

For `C[Si](C)(C)c1cc2c(cc3ccc4cccc5ccc2c3c45)[nH]1`, the emission maximum (in CCOC(C)=O) was 406 nm.

With `COC(=O)C(Cc1ccc2oc(-c3ccc(-n4c5ccccc5c5ccccc54)cc3)nc2c1)NC(=O)OC(C)(C)C` (stereo not drawn) the emission maximum (in C1CCCCC1) was 362 nm, the emission maximum (in C1CCOC1) was 429 nm and the emission maximum (in C1COCCO1) was 400 nm. For the same compound, the emission maximum (in CC1CCCO1) was 404.01 nm, the emission maximum (in CC#N) was 447.01 nm and the emission maximum (in CC(C)(C)O) was 421 nm. For the same compound, the emission maximum (in CC(C)=O) was 432.99 nm, the emission maximum (in CC(C)CC(C)(C)C) was 361.01 nm and the emission maximum (in CC(C)O) was 431 nm. For the same compound, the emission maximum (in CC(O)CO) was 455 nm, the emission maximum (in CCCCCCCO) was 421.99 nm and the emission maximum (in CCCCCCO) was 424 nm. For the same compound, the emission maximum (in CCCCCO) was 409 nm, the emission maximum (in CCCCO) was 430 nm and the emission maximum (in CCO) was 445 nm. The emission maximum (in CCOC(C)=O) was 409 nm, the emission maximum (in CCOCC) was 402.32 nm and the emission maximum (in CN(C)C=O) was 438.02 nm. The emission maximum (in CO) was 465.98 nm, the emission maximum (in CS(C)=O) was 445.99 nm and the emission maximum (in Cc1ccccc1) was 391.01 nm. It also gave an emission maximum (in OCCO) of 470.01 nm.
